Results published in patent US11739122B2, “Glycopeptide antibiotic compounds, methods for producing the same, and uses thereof” (Academia Sinica, priority 2019, dated 2023).
Converted amounts (≈) assume the structure as drawn.

How the values were obtained:
Assay in all cases: MIC, broth microdilution
[1] = tested on: A. baumannii ATCC 19606; format: cell-based, Acinetobacter baumannii; settings: for MIC on AB: A. baumannii ATCC 19606
Experimental: (§1) Determination of Minimal Inhibitory Concentration (MIC) for Vancomycin, Teicoplanin and Tei-Analogs Versus Selected Strains
(§2) MICs were determined by the broth microdilution method. Specifically, 12 Colonies of the test strain were picked up from 18-24 hour agar cultures and freshly inoculated into broth mediums until reaching the turbidity of a 0.5 McFarland standard. The broth culture was adjusted with broth medium to approximately 1×10^8 CFUmL^−1. […] The plates were incubated in 37° C. for 18-24 hours and monitored for the wells of the positive control, where cells grew, and the wells of the negative control, where wells should not grow. The MIC value was determined for the concentration of a test compound, at which there was no visible growth in the well.

[2] = tested on: E. faecalis ATCC 29302; format: cell-based; settings: EF ATCC 29302
Experimental: as §1, §2

[3] = tested on: MRSA ATCC 700787 VRSA; format: cell-based, Staphylococcus aureus; settings: MRSA ATCC 700787 VRSA
Experimental: as §1, §2

[4] = tested on: MRSA ATCC BAA-39; format: cell-based, Staphylococcus aureus; settings: MRSA ATCC BAA-39
Experimental: as §1, §2

[5] = tested on: MRSA ATCC 700698 hVISA; format: cell-based, Staphylococcus aureus; settings: MRSA ATCC 700698 hVISA
Experimental: as §1, §2

[6] = tested on: MRSA ATCC 700789 VRSA; format: cell-based, Staphylococcus aureus; settings: MRSA ATCC 700789 VRSA
Experimental: as §1, §2

[7] = tested on: MRSA ATCC 43300; format: cell-based, Staphylococcus aureus; settings: MRSA ATCC 43300
Experimental: as §1, §2

[8] = tested on: S. aureus ATCC 29213; format: cell-based, Staphylococcus aureus; settings: SA ATCC 29213
Experimental: as §1, §2

[9] = tested on: MRSA ATCC BAA-44; format: cell-based, Staphylococcus aureus; settings: MRSA ATCC BAA-44
Experimental: as §1, §2

[10] = tested on: MRSA ATCC BAA-38; format: cell-based, Staphylococcus aureus; settings: MRSA ATCC BAA-38
Experimental: as §1, §2

[11] = tested on: VRE ATCC 700221 (vanA); format: cell-based, enterococci; settings: VRE ATCC 700221 (vanA)
Experimental: as §1, §2

[12] = tested on: VRE ATCC 700802 (vanB); format: cell-based, enterococci; settings: VRE ATCC 700802 (vanB)
Experimental: as §1, §2

[13] = tested on: VRE ATCC 700425 (vanC); format: cell-based, enterococci; settings: VRE ATCC 700425 (vanC)
Experimental: as §1, §2

[14] = A. baumannii ATCC 19606, Table 3, first figure of cell
[15] = A. baumannii ATCC 19606, Table 3, second figure of cell

Row | SMILES | MIC [1, 14] | MIC [1, 15] | MIC [2] | MIC [3] | MIC [4] | MIC [5] | MIC [6] | MIC [7] | MIC [8] | MIC [9] | MIC [10] | MIC [11] | MIC [12] | MIC [13] | MIC on AB [1]
1 | CC(=O)NC1C(OC2c3ccc(c(Cl)c3)Oc3cc4cc(c3OC3OC(CO)C(O)C(O)C3NC(=O)CCCCCCCNC(=N)N)Oc3ccc(cc3Cl)CC3NC(=O)C(N(C)C)c5ccc(O)c(c5)Oc5cc(O)cc(c5)C(NC3=O)C(=O)NC4C(=O)NC3C(=O)NC2C(=O)NC(C(=O)O)c2cc(O)cc(OC4OC(CO)C(O)C(O)C4O)c2-c2cc3ccc2O)OC(CO)C(O)C1O (stereo not drawn) [Compound 27] | 50 µM | 96.73 µg/mL |  |  |  |  |  |  |  |  |  |  |  |  | 
2 | N[C@H]1C(=O)N[C@@H]2Cc3ccc(c(Cl)c3)Oc3cc4cc(c3O)Oc3ccc(cc3Cl)[C@@H](O[C@@H]3O[C@H](CO)[C@@H](O)[C@H](O)[C@H]3NC(=O)CCCCCc3ccccc3)[C@@H]3NC(=O)[C@H](NC(=O)[C@@H]4NC(=O)[C@@H](NC2=O)c2cc(O)cc(c2)Oc2cc1ccc2O)c1ccc(O)c(c1)-c1c(O)cc(O)cc1[C@@H](C(=O)O)NC3=O [Compound 16] |  |  | 0.25 µg/mL (≈ 0.163 µM) | 0.125 µg/mL (≈ 0.0815 µM) | 0.063 µg/mL (≈ 0.0411 µM) | 0.016 µg/mL (≈ 0.0104 µM) | 0.5 µg/mL (≈ 0.326 µM) | 0.063 µg/mL (≈ 0.0411 µM) | 0.125 µg/mL (≈ 0.0815 µM) | 0.016 µg/mL (≈ 0.0104 µM) | 0.031 µg/mL (≈ 0.0202 µM) | >16 µg/mL | 0.25 µg/mL (≈ 0.163 µM) | 1 µg/mL (≈ 0.652 µM) | 
3 | N[C@H]1C(=O)N[C@@H]2Cc3ccc(c(Cl)c3)Oc3cc4cc(c3O)Oc3ccc(cc3Cl)[C@@H](O[C@@H]3O[C@H](CO)[C@@H](O)[C@H](O)[C@H]3NC(=O)CCc3ccccc3)[C@@H]3NC(=O)[C@H](NC(=O)[C@@H]4NC(=O)[C@@H](NC2=O)c2cc(O)cc(c2)Oc2cc1ccc2O)c1ccc(O)c(c1)-c1c(O)cc(O)cc1[C@@H](C(=O)O)NC3=O [Compound 15] |  |  | 0.25 µg/mL (≈ 0.168 µM) | 0.031 µg/mL (≈ 0.0208 µM) | 0.016 µg/mL (≈ 0.0107 µM) | 0.016 µg/mL (≈ 0.0107 µM) | 0.5 µg/mL (≈ 0.335 µM) | 0.031 µg/mL (≈ 0.0208 µM) | 0.031 µg/mL (≈ 0.0208 µM) | 0.016 µg/mL (≈ 0.0107 µM) | 0.016 µg/mL (≈ 0.0107 µM) | >16 µg/mL | 0.5 µg/mL (≈ 0.335 µM) | 1 µg/mL (≈ 0.67 µM) | 
4 | CN(C)[C@H]1C(=O)N[C@@H]2Cc3ccc(c(Cl)c3)Oc3cc4cc(c3O)Oc3ccc(cc3Cl)[C@@H](O[C@@H]3O[C@H](CO)[C@@H](O)[C@H](O)[C@H]3NC(=O)CCCCCCCO)[C@@H]3NC(=O)[C@H](NC(=O)[C@@H]4NC(=O)[C@@H](NC2=O)c2cc(O)cc(c2)Oc2cc1ccc2O)c1ccc(O)c(c1)-c1c(O)cc(O)cc1[C@@H](C(=O)O)NC3=O [Compound 21] | 100 µM | 152.84 µg/mL | 1 µg/mL (≈ 0.653 µM) | 0.125 µg/mL (≈ 0.0817 µM) |  | 0.063 µg/mL (≈ 0.0412 µM) |  |  | 0.125 µg/mL (≈ 0.0817 µM) |  |  | >16 µg/mL | 8 µg/mL (≈ 5.23 µM) | 8 µg/mL (≈ 5.23 µM) | 152.84 µg/mL (≈ 99.9 µM)
5 | NCCC[C@H](N)CC(=O)N[C@@H]1[C@H](O)[C@@H](OC(N)=O)[C@@H](CO)O[C@H]1NC1=N[C@@H]2C(=O)NC[C@@H](O)[C@H]2N1 [streptothricin F, reference compound] | 12.5 µM | 6.28 µg/mL |  |  |  |  |  |  |  |  |  |  |  |  | 
6 | CCCCCCCC(=O)NC1C(OC2c3ccc(c(Cl)c3)Oc3cc4cc(c3O)Oc3ccc(cc3Cl)CC3NC(=O)C(N)c5ccc(O)c(c5)Oc5cc(O)cc(c5)C(NC3=O)C(=O)NC4C(=O)NC3C(=O)NC2C(=O)NC(C(=O)O)c2cc(O)cc(OC4OC(CO)C(O)C(O)C4O)c2-c2cc3ccc2O)OC(CO)C(O)C1O (stereo not drawn) [Compound 26] |  |  | 0.5 µg/mL (≈ 0.303 µM) | 0.5 µg/mL (≈ 0.303 µM) | 0.016 µg/mL (≈ 0.00971 µM) | 0.031 µg/mL (≈ 0.0188 µM) | 0.5 µg/mL (≈ 0.303 µM) | 0.125 µg/mL (≈ 0.0758 µM) | 0.016 µg/mL (≈ 0.00971 µM) | 0.016 µg/mL (≈ 0.00971 µM) | 0.125 µg/mL (≈ 0.0758 µM) | >16 µg/mL | 1 µg/mL (≈ 0.607 µM) | 1 µg/mL (≈ 0.607 µM) | 
7 | CN(C)[C@H]1C(=O)N[C@@H]2Cc3ccc(c(Cl)c3)Oc3cc4cc(c3O)Oc3ccc(cc3Cl)[C@@H](O[C@@H]3O[C@H](CO)[C@@H](O)[C@H](O)[C@H]3NC(=O)CCCCCCC[N+](C)(C)C)[C@@H]3NC(=O)[C@H](NC(=O)[C@@H]4NC(=O)[C@@H](NC2=O)c2cc(O)cc(c2)Oc2cc1ccc2O)c1ccc(O)c(c1)-c1c(O)cc(O)cc1[C@@H](C(=O)O)NC3=O [Compound 23] | 50 µM | 78.52 µg/mL | 0.25 µg/mL | 0.031 µg/mL |  | 0.031 µg/mL |  |  | 0.031 µg/mL |  |  | >16 µg/mL | 1 µg/mL | 2 µg/mL | 78.52 µg/mL
8 | N[C@H]1C(=O)N[C@@H]2Cc3ccc(c(Cl)c3)Oc3cc4cc(c3O)Oc3ccc(cc3Cl)[C@@H](O[C@@H]3O[C@H](CO)[C@@H](O)[C@H](O)[C@H]3NC(=O)CCCCCCCCCCCO)[C@@H]3NC(=O)[C@H](NC(=O)[C@@H]4NC(=O)[C@@H](NC2=O)c2cc(O)cc(c2)Oc2cc1ccc2O)c1ccc(O)c(c1)-c1c(O)cc(O)cc1[C@@H](C(=O)O)NC3=O [Compound 19] |  |  | 0.25 µg/mL (≈ 0.16 µM) | 0.016 µg/mL (≈ 0.0103 µM) | 0.016 µg/mL (≈ 0.0103 µM) | 0.016 µg/mL (≈ 0.0103 µM) | 0.25 µg/mL (≈ 0.16 µM) | 0.063 µg/mL (≈ 0.0404 µM) | 0.016 µg/mL (≈ 0.0103 µM) | 0.016 µg/mL (≈ 0.0103 µM) | 0.031 µg/mL (≈ 0.0199 µM) | >16 µg/mL | 0.5 µg/mL (≈ 0.321 µM) | 1 µg/mL (≈ 0.642 µM) | 
9 | CN(C)[C@H]1C(=O)N[C@@H]2Cc3ccc(c(Cl)c3)Oc3cc4cc(c3O)Oc3ccc(cc3Cl)[C@@H](O[C@@H]3O[C@H](CO)[C@@H](O)[C@H](O)[C@H]3NC(=O)CCCCCCCNC(=N)NC(=N)N)[C@@H]3NC(=O)[C@H](NC(=O)[C@@H]4NC(=O)[C@@H](NC2=O)c2cc(O)cc(c2)Oc2cc1ccc2O)c1ccc(O)c(c1)-c1c(O)cc(O)cc1[C@@H](C(=O)O)NC3=O [Compound 25, r1,Me2-r6,C8-diguanidino-Tei] | 25 µM | 40.29 µg/mL |  |  |  |  |  |  |  |  |  |  |  |  | 39.24 µg/mL (≈ 24.3 µM)
10 | CN(C)[C@H]1C(=O)N[C@@H]2Cc3ccc(c(Cl)c3)Oc3cc4cc(c3O)Oc3ccc(cc3Cl)[C@@H](O[C@@H]3O[C@H](CO)[C@@H](O)[C@H](O)[C@H]3NC(=O)CCCCCCCN)[C@@H]3NC(=O)[C@H](NC(=O)[C@@H]4NC(=O)[C@@H](NC2=O)c2cc(O)cc(c2)Oc2cc1ccc2O)c1ccc(O)c(c1)-c1c(O)cc(O)cc1[C@@H](C(=O)O)NC3=O [Compound 22] | 25 µM | 38.19 µg/mL | 1 µg/mL (≈ 0.654 µM) | 0.063 µg/mL (≈ 0.0412 µM) |  | 0.125 µg/mL (≈ 0.0817 µM) |  |  | 0.031 µg/mL (≈ 0.0203 µM) |  |  | >16 µg/mL | 1 µg/mL (≈ 0.654 µM) | 2 µg/mL (≈ 1.31 µM) | 
